Experimental data published in patent US20220096516A1, “OLIGONUCLEOTIDE MOLECULE AND APPLICATION THEREOF IN TUMOR THERAPY” (Ractigen Therapeutics, priority 2019, published 2022).
d = 2'-deoxy (DNA); r = 2'-OH (RNA)

Tested on: LHPP gene
Assay: High-throughput screening of saRNAs targeting LHPP promoter: LHPP mRNA by one-step RT-qPCR in Huh7 cells
Format: cell-based, human
Conditions: 10 nM saRNA, 72 hours, relative to control (Mock)
In short: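 Huh7 cells were transfected with 10 nM saRNA using RNAiMax and lysed 72 h later. LHPP mRNA was quantified by one-step RT-qPCR in triplicate wells. Expression was normalised to HPRT1 and TBP and given as fold change versus mock-transfected cells.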

Row | Substance | Fold of changes in relative LHPP mRNA expression level [fold] | Fold of changes in relative LHPP mRNA expression level (log2)
1 | RAG7-670: saRNA duplex; sense CAGGGCUGUUAUCUGCAUATT (SEQ ID NO: 136), antisense UAUGCAGAUAACAGCCCUGTT (SEQ ID NO: 300) (sugars from the 5' end r19 d2, backbone not given here) | 1.15 | 0.20
2 | RAG7-676: saRNA duplex; sense UCUAUGCAGGGCUGUUAUCTT (SEQ ID NO: 83), antisense GAUAACAGCCCUGCAUAGATT (SEQ ID NO: 247) (sugars from the 5' end r19 d2, backbone not given here) | 1.26 | 0.33
3 | RAG7-677: saRNA duplex; sense AUCUAUGCAGGGCUGUUAUTT (SEQ ID NO: 20), antisense AUAACAGCCCUGCAUAGAUTT (SEQ ID NO: 184) (sugars from the 5' end r19 d2, backbone not given here) | 1.56 | 0.64
4 | RAG7-678: saRNA duplex; sense CAUCUAUGCAGGGCUGUUATT (SEQ ID NO: 63), antisense UAACAGCCCUGCAUAGAUGTT (SEQ ID NO: 227) (sugars from the 5' end r19 d2, backbone not given here) | 1.33 | 0.41
5 | RAG7-679: saRNA duplex; sense UCAUCUAUGCAGGGCUGUUTT (SEQ ID NO: 107), antisense AACAGCCCUGCAUAGAUGATT (SEQ ID NO: 271) (sugars from the 5' end r19 d2, backbone not given here) | 1.20 | 0.27
6 | RAG7-681: saRNA duplex; sense CCUCAUCUAUGCAGGGCUGTT (SEQ ID NO: 149), antisense CAGCCCUGCAUAGAUGAGGTT (SEQ ID NO: 313) (sugars from the 5' end r19 d2, backbone not given here) | 1.13 | 0.17
7 | RAG7-684: saRNA duplex; sense CAUCCUCAUCUAUGCAGGGTT (SEQ ID NO: 47), antisense CCCUGCAUAGAUGAGGAUGTT (SEQ ID NO: 211) (sugars from the 5' end r19 d2, backbone not given here) | 1.39 | 0.47
8 | RAG7-686: saRNA duplex; sense UGCAUCCUCAUCUAUGCAGTT (SEQ ID NO: 86), antisense CUGCAUAGAUGAGGAUGCATT (SEQ ID NO: 250) (sugars from the 5' end r19 d2, backbone not given here) | 1.25 | 0.32
9 | RAG7-687: saRNA duplex; sense AUGCAUCCUCAUCUAUGCATT (SEQ ID NO: 162), antisense UGCAUAGAUGAGGAUGCAUTT (SEQ ID NO: 326) (sugars from the 5' end r19 d2, backbone not given here) | 1.10 | 0.14
10 | RAG7-690: saRNA duplex; sense CCUAUGCAUCCUCAUCUAUTT (SEQ ID NO: 42), antisense AUAGAUGAGGAUGCAUAGGTT (SEQ ID NO: 206) (sugars from the 5' end r19 d2, backbone not given here) | 1.42 | 0.51
11 | RAG7-691: saRNA duplex; sense UCCUAUGCAUCCUCAUCUATT (SEQ ID NO: 30), antisense UAGAUGAGGAUGCAUAGGATT (SEQ ID NO: 194) (sugars from the 5' end r19 d2, backbone not given here) | 1.50 | 0.58
12 | RAG7-692: saRNA duplex; sense GUCCUAUGCAUCCUCAUCUTT (SEQ ID NO: 124), antisense AGAUGAGGAUGCAUAGGACTT (SEQ ID NO: 288) (sugars from the 5' end r19 d2, backbone not given here) | 1.17 | 0.22
13 | RAG7-693: saRNA duplex; sense GGUCCUAUGCAUCCUCAUCTT (SEQ ID NO: 98), antisense GAUGAGGAUGCAUAGGACCTT (SEQ ID NO: 262) (sugars from the 5' end r19 d2, backbone not given here) | 1.22 | 0.29
14 | RAG7-695: saRNA duplex; sense CAGGUCCUAUGCAUCCUCATT (SEQ ID NO: 54), antisense UGAGGAUGCAUAGGACCUGTT (SEQ ID NO: 218) (sugars from the 5' end r19 d2, backbone not given here) | 1.36 | 0.44
15 | RAG7-696: saRNA duplex; sense CCAGGUCCUAUGCAUCCUCTT (SEQ ID NO: 17), antisense GAGGAUGCAUAGGACCUGGTT (SEQ ID NO: 181) (sugars from the 5' end r19 d2, backbone not given here) | 1.58 | 0.66
16 | RAG7-697: saRNA duplex; sense CCCAGGUCCUAUGCAUCCUTT (SEQ ID NO: 41), antisense AGGAUGCAUAGGACCUGGGTT (SEQ ID NO: 205) (sugars from the 5' end r19 d2, backbone not given here) | 1.43 | 0.51
17 | RAG7-698: saRNA duplex; sense GCCCAGGUCCUAUGCAUCCTT (SEQ ID NO: 118), antisense GGAUGCAUAGGACCUGGGCTT (SEQ ID NO: 282) (sugars from the 5' end r19 d2, backbone not given here) | 1.18 | 0.24
18 | RAG7-702: saRNA duplex; sense CUCAGCCCAGGUCCUAUGCTT (SEQ ID NO: 140), antisense GCAUAGGACCUGGGCUGAGTT (SEQ ID NO: 304) (sugars from the 5' end r19 d2, backbone not given here) | 1.14 | 0.19
19 | RAG7-704: saRNA duplex; sense UUCUCAGCCCAGGUCCUAUTT (SEQ ID NO: 112), antisense AUAGGACCUGGGCUGAGAATT (SEQ ID NO: 276) (sugars from the 5' end r19 d2, backbone not given here) | 1.19 | 0.26
20 | RAG7-706: saRNA duplex; sense UCUUCUCAGCCCAGGUCCUTT (SEQ ID NO: 15), antisense AGGACCUGGGCUGAGAAGATT (SEQ ID NO: 179) (sugars from the 5' end r19 d2, backbone not given here) | 1.63 | 0.70
21 | RAG7-707: saRNA duplex; sense UUCUUCUCAGCCCAGGUCCTT (SEQ ID NO: 8), antisense GGACCUGGGCUGAGAAGAATT (SEQ ID NO: 172) (sugars from the 5' end r19 d2, backbone not given here) | 1.72 | 0.78
22 | RAG7-708: saRNA duplex; sense UUUCUUCUCAGCCCAGGUCTT (SEQ ID NO: 106), antisense GACCUGGGCUGAGAAGAAATT (SEQ ID NO: 270) (sugars from the 5' end r19 d2, backbone not given here) | 1.21 | 0.27
23 | RAG7-709: saRNA duplex; sense UUUUCUUCUCAGCCCAGGUTT (SEQ ID NO: 126), antisense ACCUGGGCUGAGAAGAAAATT (SEQ ID NO: 290) (sugars from the 5' end r19 d2, backbone not given here) | 1.17 | 0.22
24 | RAG7-710: saRNA duplex; sense GUUUUCUUCUCAGCCCAGGTT (SEQ ID NO: 122), antisense CCUGGGCUGAGAAGAAAACTT (SEQ ID NO: 286) (sugars from the 5' end r19 d2, backbone not given here) | 1.18 | 0.24
25 | RAG7-715: saRNA duplex; sense GUCCCGUUUUCUUCUCAGCTT (SEQ ID NO: 148), antisense GCUGAGAAGAAAACGGGACTT (SEQ ID NO: 312) (sugars from the 5' end r19 d2, backbone not given here) | 1.13 | 0.18
26 | RAG7-720: saRNA duplex; sense UGAUAGUCCCGUUUUCUUCTT (SEQ ID NO: 62), antisense GAAGAAAACGGGACUAUCATT (SEQ ID NO: 226) (sugars from the 5' end r19 d2, backbone not given here) | 1.33 | 0.41
27 | RAG7-721: saRNA duplex; sense GUGAUAGUCCCGUUUUCUUTT (SEQ ID NO: 133), antisense AAGAAAACGGGACUAUCACTT (SEQ ID NO: 297) (sugars from the 5' end r19 d2, backbone not given here) | 1.16 | 0.21
